Laboratory results published in ChEMBL document CHEMBL1201862, “PubChem BioAssay data set” (2004).
Several values for one entry are separate records, joined by “and”; a condition that tells them apart may be missing. Equal values may be shown once. Activity calls are given as the source filed them.

Assays:
Cytochrome P450 2C19 = Cytochrome P450 2C19 (Homo sapiens, UniProt P33261); test: Cytochrome panel assay with activity outcomes. Panel member name: p450-cyp2c19 Compounds with AC50 equal or less than 10 uM are considered active; type: functional; conditions: read-out: AC50
Chain of Cytochrome P450 2C19 (P33261 whole entry): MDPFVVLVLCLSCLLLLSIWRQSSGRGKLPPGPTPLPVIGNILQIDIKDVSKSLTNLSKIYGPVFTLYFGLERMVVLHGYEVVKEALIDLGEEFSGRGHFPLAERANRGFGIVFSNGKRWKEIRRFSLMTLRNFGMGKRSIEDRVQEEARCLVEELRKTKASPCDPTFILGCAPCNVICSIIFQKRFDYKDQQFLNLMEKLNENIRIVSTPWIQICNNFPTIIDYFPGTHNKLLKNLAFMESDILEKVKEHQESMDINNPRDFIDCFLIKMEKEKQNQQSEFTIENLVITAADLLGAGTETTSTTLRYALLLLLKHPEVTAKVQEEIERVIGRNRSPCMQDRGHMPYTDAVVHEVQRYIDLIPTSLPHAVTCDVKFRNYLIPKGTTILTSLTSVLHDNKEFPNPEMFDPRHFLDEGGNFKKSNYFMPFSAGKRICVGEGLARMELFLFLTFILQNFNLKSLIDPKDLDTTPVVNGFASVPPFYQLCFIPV

Cytochrome P450 2C9 = Cytochrome P450 2C9 (Homo sapiens, UniProt P11712)
Chain of Cytochrome P450 2C9 (P11712 whole entry): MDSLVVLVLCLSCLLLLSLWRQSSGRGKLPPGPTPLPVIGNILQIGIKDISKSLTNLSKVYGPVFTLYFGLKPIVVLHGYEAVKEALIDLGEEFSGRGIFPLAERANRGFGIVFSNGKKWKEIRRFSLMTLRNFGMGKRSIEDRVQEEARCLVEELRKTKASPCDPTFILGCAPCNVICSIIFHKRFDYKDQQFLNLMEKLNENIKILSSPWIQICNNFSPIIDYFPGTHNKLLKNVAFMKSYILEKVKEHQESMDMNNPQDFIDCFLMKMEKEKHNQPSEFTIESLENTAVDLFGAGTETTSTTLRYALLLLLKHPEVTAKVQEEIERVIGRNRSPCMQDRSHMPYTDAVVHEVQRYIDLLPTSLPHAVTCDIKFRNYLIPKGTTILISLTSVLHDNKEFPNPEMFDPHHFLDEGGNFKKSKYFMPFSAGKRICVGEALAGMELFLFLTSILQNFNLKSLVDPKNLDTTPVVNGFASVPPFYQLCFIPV

Cytochrome P450 2D6 = Cytochrome P450 2D6 (Homo sapiens, UniProt P10635);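 further: CYP2D6 member of a cytochrome P450 panel assay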
Chain of Cytochrome P450 2D6 (P10635 whole entry): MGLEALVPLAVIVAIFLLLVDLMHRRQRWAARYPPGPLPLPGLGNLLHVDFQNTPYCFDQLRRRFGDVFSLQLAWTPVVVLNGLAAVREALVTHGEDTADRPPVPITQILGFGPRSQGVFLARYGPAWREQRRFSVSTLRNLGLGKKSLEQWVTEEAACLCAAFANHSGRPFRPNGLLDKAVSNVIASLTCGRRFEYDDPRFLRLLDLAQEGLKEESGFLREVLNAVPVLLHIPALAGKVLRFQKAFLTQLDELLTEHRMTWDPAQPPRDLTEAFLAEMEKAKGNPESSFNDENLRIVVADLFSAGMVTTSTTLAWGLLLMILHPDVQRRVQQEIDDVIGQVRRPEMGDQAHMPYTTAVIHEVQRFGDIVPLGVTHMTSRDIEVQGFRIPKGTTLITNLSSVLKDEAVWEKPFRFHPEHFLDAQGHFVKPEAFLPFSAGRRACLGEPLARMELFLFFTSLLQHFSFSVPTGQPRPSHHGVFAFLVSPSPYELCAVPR

Cytochrome P450 1A2 = target: T1, Cytochrome P450 1A2 (Homo sapiens, UniProt P05177);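 further: PubChem cytochrome P450 panel assay, CYP1A2 panel member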
T1 sequence (P05177 whole entry): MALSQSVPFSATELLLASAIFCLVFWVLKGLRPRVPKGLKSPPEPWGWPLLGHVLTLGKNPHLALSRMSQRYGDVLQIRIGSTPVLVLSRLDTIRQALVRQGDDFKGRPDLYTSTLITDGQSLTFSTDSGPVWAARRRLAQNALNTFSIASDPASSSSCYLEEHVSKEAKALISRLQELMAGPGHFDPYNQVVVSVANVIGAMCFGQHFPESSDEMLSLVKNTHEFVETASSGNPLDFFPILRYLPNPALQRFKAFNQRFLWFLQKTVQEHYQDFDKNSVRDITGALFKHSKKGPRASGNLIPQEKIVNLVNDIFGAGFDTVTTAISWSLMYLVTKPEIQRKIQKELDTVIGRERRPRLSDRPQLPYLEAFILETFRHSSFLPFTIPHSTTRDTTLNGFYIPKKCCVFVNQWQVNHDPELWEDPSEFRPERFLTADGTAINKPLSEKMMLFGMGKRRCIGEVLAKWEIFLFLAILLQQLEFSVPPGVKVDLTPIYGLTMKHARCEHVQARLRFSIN

Cytochrome P450 3A4 = Cytochrome P450 3A4 (Homo sapiens, UniProt P08684);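 further: CYP3A4 tested as one member of a cytochrome P450 panel screen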
Chain of Cytochrome P450 3A4 (P08684 whole entry): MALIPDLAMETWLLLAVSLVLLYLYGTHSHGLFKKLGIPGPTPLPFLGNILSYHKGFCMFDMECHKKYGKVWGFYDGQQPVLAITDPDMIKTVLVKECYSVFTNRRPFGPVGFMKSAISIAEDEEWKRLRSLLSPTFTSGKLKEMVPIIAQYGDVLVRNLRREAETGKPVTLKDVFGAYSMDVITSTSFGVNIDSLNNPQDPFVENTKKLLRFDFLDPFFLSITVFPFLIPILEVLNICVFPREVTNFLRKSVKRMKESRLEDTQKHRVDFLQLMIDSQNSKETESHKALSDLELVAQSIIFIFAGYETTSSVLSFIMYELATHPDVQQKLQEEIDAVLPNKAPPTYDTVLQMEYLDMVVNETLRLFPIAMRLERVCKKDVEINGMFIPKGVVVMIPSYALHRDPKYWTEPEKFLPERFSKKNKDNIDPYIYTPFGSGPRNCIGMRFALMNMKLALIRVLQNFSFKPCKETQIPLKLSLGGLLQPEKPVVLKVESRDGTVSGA

[1] = target: FAD-linked sulfhydryl oxidase ALR (Homo sapiens, UniProt P55789); test: inhibitors of human ALR sulfhydryl oxidase, dose response, biochemical, H2O2 detection, luminescence, cherry-pick (AID 493248)
Chain of FAD-linked sulfhydryl oxidase ALR (P55789 whole entry): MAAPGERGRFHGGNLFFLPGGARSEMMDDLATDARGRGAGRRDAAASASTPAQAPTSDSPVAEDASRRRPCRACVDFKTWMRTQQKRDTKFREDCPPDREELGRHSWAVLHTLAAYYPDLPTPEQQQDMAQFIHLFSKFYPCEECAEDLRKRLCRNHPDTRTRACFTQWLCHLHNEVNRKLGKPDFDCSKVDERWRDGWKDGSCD

[2] = target: T2, Heat shock factor protein 1 (Mus musculus, UniProt P38532); test: HSF1 potentiators in luciferase reporter cells, confirmation, cell-based, NIH3T3, luminescence, dose retest (AID 435004); type: functional;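 further: stress induced by proteasome inhibitor MG132 added 30 min after compound; luciferase reporter driven by HSF1 response element in NIH3T3 cells; actives raise luminescence as potentiators of the MG132 stress response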
T2 sequence (P38532 whole entry): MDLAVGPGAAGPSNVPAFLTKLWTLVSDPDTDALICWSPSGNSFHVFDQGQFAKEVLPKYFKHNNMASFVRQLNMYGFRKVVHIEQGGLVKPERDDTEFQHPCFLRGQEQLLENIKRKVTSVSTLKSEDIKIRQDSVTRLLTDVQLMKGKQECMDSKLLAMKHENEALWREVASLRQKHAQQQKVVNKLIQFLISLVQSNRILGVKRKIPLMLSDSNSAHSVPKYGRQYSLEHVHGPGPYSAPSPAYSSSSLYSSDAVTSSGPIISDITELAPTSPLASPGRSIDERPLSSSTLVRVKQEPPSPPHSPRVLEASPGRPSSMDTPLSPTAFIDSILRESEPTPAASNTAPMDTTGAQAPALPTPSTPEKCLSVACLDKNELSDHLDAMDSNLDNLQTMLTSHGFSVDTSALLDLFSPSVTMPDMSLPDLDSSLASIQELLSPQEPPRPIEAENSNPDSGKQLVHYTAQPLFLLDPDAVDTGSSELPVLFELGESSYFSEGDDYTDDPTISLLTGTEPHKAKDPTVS

[3] = target: Luciferin 4-monooxygenase (Photinus pyralis, UniProt P08659); test: firefly luciferase enzyme inhibitors, dose response, biochemical, luminescence (AID 1891)
Chain of Luciferin 4-monooxygenase (P08659 whole entry): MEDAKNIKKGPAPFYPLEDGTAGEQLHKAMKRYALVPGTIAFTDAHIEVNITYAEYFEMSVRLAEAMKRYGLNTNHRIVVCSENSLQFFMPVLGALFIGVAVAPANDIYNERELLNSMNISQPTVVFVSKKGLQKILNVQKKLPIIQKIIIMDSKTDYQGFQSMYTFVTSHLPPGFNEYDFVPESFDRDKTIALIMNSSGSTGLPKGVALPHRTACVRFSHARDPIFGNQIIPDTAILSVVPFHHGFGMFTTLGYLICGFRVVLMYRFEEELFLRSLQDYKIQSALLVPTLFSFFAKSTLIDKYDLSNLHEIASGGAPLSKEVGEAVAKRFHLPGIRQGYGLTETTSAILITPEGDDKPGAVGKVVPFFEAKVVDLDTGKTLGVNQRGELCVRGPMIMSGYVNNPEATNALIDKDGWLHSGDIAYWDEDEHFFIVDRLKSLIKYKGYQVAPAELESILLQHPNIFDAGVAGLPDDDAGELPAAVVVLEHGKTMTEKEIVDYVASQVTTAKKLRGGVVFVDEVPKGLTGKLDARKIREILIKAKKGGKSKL

[4] = Luminescence Cell-Based Dose Confirmation HTS to Identify Inhibitors of Platelet Dense Granule Release. [Related pubchem assays: 1663 (Primary HTS), 1678 (Summary of Project)]; type: functional
H9c2 = test: cells; type: functional, cell-based; conditions: Rattus norvegicus, H9c2, Myocardium;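 further: confirmatory concentration-response retest of ultra-high-throughput screening hits for modulation of myocardial damage; cell death induced by hydrogen peroxide oxidative stress; compound pretreatment for 60 min then peroxide exposure for 2 h; potency is for protecting the cells against peroxide damage rather than for killing them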
[5] = target: T3, Microphthalmia-associated transcription factor (Homo sapiens, UniProt O75030); test: TRPM1 promoter luciferase signal decrease, dose response, MITF inhibitor project, cell-based, SK-MEL-5, cherry-picked, set 3 (AID 493073); type: functional
T3 sequence (O75030 whole entry): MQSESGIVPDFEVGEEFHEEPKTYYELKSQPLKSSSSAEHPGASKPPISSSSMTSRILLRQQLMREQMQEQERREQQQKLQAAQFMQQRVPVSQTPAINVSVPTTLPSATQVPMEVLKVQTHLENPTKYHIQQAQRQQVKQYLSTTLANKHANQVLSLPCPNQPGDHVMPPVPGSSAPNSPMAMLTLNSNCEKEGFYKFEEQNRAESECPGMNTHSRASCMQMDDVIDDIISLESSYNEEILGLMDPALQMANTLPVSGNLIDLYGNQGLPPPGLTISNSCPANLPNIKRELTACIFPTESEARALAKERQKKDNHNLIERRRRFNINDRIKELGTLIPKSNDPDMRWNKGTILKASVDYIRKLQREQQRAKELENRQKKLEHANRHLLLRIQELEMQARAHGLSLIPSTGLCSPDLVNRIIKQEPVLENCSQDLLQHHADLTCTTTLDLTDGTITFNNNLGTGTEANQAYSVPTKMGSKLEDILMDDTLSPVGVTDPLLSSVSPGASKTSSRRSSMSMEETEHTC

CCC/C=C(\CCC)C(NP(=O)(c1ccccc1)c1ccccc1)c1ccc(C(F)(F)F)cc1 (stereo not given)
AC50 (Cytochrome P450 2C19): 39.8 µM (inconclusive) | AC50 (Cytochrome P450 2C9): 12.6 µM (inconclusive)

COC(=O)[C@@]1(Cc2ccc(OC)cc2)[C@H]2c3cc(C(=O)N(C)C)n(Cc4c(CO)ncc(C)c4O)c3C[C@H]2CN1C(=O)c1ccccc1
AC50 (Cytochrome P450 2C19): 31.6 µM (inconclusive) | AC50 (Cytochrome P450 2D6): 20 µM (inconclusive)

COc1ccc(Oc2ncc3nc(-c4ccc(OC)cc4)c(=O)n(Cc4cccs4)c3n2)cc1
AC50 (Cytochrome P450 1A2): 15.8 µM (inconclusive) | AC50 (Cytochrome P450 3A4): 3.16 µM (inconclusive) | AC50 (Cytochrome P450 2C9): 3.16 µM (inconclusive)

CN(CCCNC(=O)C1CCC(=O)N1Cc1ccccc1Cl)c1ccccc1 (stereo not given)
AC50 [1]: 398 nM (active) | AC50 (Cytochrome P450 2D6): 8.91 µM (inconclusive)

CCCC[C@@H]1C[C@H]1C(NC(=O)c1ccccc1)c1ccc(Cl)cc1 (stereo not given in full)
AC50 (Cytochrome P450 2D6): 20 µM (inconclusive) | AC50 (Cytochrome P450 2C9): 2.51 µM (inconclusive)

Cc1ccc(NC(=O)c2sc3ncn(CC(=O)N4CCOCC4)c(=O)c3c2C)c(Br)c1
EC50 [2]: > 260 µM (inactive)

CC(=O)c1cc(C#N)c(Oc2ccc(F)cc2)nc1C
AC50 (Cytochrome P450 2C19): 10 µM (inconclusive) | AC50 (Cytochrome P450 2C9): 3.98 µM (inconclusive)

Cc1nc2nc(-c3ccc(F)cc3)cn2nc1C
EC50 [2]: > 260 µM (inconclusive)

C[N+](C)(C)CC[N+]1(C)Cc2c(Cl)c(Cl)c(Cl)c(Cl)c2C1 [CHLORISONDAMINE]
AC50 (Cytochrome P450 2C19): 5.01 µM (inconclusive) | AC50 (Cytochrome P450 2D6): 15.8 µM (inconclusive)

COc1cccc(C(=O)C2=C(O)C(=O)N(c3ccccn3)C2c2ccc(OC)c(OC)c2)c1 (stereo not given)
AC50 (Cytochrome P450 3A4): 17.8 µM (inconclusive) | AC50 (Cytochrome P450 2C9): 15.8 µM (inconclusive)

CCC(C)C(=O)Nc1ncc2c(n1)CC(c1cccs1)CC2=O (stereo not given)
EC50 [3]: > 112 µM (not active) | EC50 [4]: > 112 µM (not active) | EC50 [2]: > 260 µM (inactive)

O=C(OCC(=O)N1CCCCCC1)c1nnc(O)c2ccccc12
IC50 (H9c2): > 79 µM (inactive)

COc1ccccc1CNc1cc(-c2ccc(C(=O)N(C)C)cc2)ncn1
AC50 (Cytochrome P450 2D6): 12.6 µM (inconclusive)

Cc1cc2[nH]c(=O)c3ccccc3n2n1
IC50 (H9c2): > 79 µM (inactive)

CCn1c(O)c(/C=N/N=C2CCCC2)c2ccc(C3=NNC(=O)CC3)cc21
IC50 (H9c2): > 79 µM (inactive) | AC50 (Cytochrome P450 3A4): 7.08 µM (inconclusive)

N#CCC(CNc1ncc(C(F)(F)F)cc1Cl)OC(=O)c1ccc(Cl)cc1Cl (stereo not given)
EC50 [2]: 42.6 µM (active)

CCCCc1c(O)n(-c2ccc(OC)cc2)c(SCC(=O)N2CCOCC2)nc1=O
EC50 [2]: > 260 µM (inactive)

COc1ccccc1C(=O)COC(=O)Cn1[nH]c(=O)c2ccccc2c1=O
IC50 (H9c2): 18.5 µM (active)

COc1cc(CNn2nnnc2N)ccc1OCc1c(Cl)cccc1Cl
AC50 (Cytochrome P450 2C9): 25.1 µM (inconclusive)

O=C(OCc1cc(=O)n2ccsc2n1)c1ccc(O)cc1O
IC50 (H9c2): > 79 µM (inactive)

O=C1CN=C(Nc2ccccc2)N1Cc1cccs1
AC50 (Cytochrome P450 2D6): 25.1 µM (inconclusive)

COc1ccc(S(=O)(=O)N/N=c2\oc3c(OC)cccc3cc2S(=O)(=O)c2ccc(C)cc2)cc1OC
EC50 [2]: 67.1 µM (active)

COc1cccc(Nc2nc3ccccc3n3cnnc23)c1
IC50 (H9c2): > 79 µM (inactive)

O=C(N/N=C/c1cn(-c2ccccc2)nc1-c1cccnc1)c1ccccc1
IC50 (H9c2): > 79 µM (inactive)

Fc1cccc(-c2nnn3c2nc(Cl)c2ccccc23)c1
EC50 [2]: 13.6 µM (inconclusive)

CNC(=O)NC(=S)NC(=O)c1ccc(OC)cc1
AC50 (Cytochrome P450 3A4): 31.6 µM (inconclusive) | AC50 (Cytochrome P450 2C9): 31.6 µM (inconclusive)

COc1cccc(Cn2c(=O)c(-c3ccc(F)cc3)nc3cnc(N4CCNCC4)nc32)c1
AC50 (Cytochrome P450 2C19): 39.8 µM (inconclusive) | AC50 (Cytochrome P450 2D6): 25.1 µM (inconclusive) | AC50 (Cytochrome P450 1A2): 25.1 µM (inconclusive)

COCC(=O)N1CCC2(CC1)CN(C(=O)Nc1ccccc1)C2
AC50 (Cytochrome P450 2D6): 39.8 µM (inconclusive)

Cc1c(C(=O)NN2CCOCC2)nn(-c2ccc(Cl)cc2Cl)c1-c1ccc(I)cc1
AC50 (Cytochrome P450 2D6): 12.6 µM (inconclusive) | AC50 (Cytochrome P450 1A2): 31.6 µM (inconclusive)

Brc1ccc(CSc2ccc3nnc(-c4cccnc4)n3n2)cc1
IC50 (H9c2): > 79 µM (inactive)

Fc1cccc(F)c1CN1CCN(c2ccc(Cl)cc2)CC1
EC50 [2]: > 260 µM (inactive)

CC1CCCC(C)N1C(=O)COC(=O)c1nnc(O)c2ccccc12 (stereo not given)
IC50 (H9c2): > 79 µM (inactive)

CC(=O)NC1C(OCCOc2ccc(Cl)cc2Cl)OC(COC(C)=O)C(OC(C)=O)C1OC(C)=O (stereo not given)
AC50 (Cytochrome P450 2C19): 15.8 µM (inconclusive) | AC50 (Cytochrome P450 2C9): 4.47 µM (inconclusive)

COc1ccc(C(=O)COC(=O)Cn2[nH]c(=O)c3ccccc3c2=O)c(OC)c1
IC50 (H9c2): 17.5 µM (active)

COc1ccc(S(=O)(=O)N(C)c2ccc(C(=O)NCc3ccccn3)cc2)cc1
EC50 [2]: > 260 µM (inactive)

O=C(O)CC/C=C\C[C@@H]1CO[C@H](c2ccccc2Cl)O[C@@H]1c1ccccc1O
AC50 (Cytochrome P450 2D6): 20 µM (inconclusive) | AC50 (Cytochrome P450 1A2): 39.8 µM (inconclusive) | AC50 (Cytochrome P450 3A4): 15.8 µM (inconclusive)

O=C(Cc1c(O)c2ccccc2oc1=O)c1ccc(C(F)(F)F)cc1
EC50 [2]: > 260 µM (inactive)

CN(C)c1ncc2ncc(=O)n(Cc3ccc(F)cc3)c2n1
AC50 (Cytochrome P450 2D6): 12.6 µM (inconclusive)

O=C1NC2c3c(I)sc(I)c3C(=O)C2O1 (stereo not given)
AC50 [5]: 15.5 µM (active)

COc1cccc(Cn2c(=O)cnc3cncnc32)c1
AC50 (Cytochrome P450 2C19): 25.1 µM (inconclusive) | AC50 (Cytochrome P450 2D6): 25.1 µM (inconclusive) | AC50 (Cytochrome P450 3A4): 20 µM (inconclusive)

COc1ccc(CCN(C)CCc2ccc(OC)c(OC)c2)cc1OC
AC50 (Cytochrome P450 2D6): 31.6 µM (inconclusive) and 12.6 µM (inconclusive) | AC50 (Cytochrome P450 3A4): 15.8 µM (inconclusive) and 10 µM (inconclusive)

O=C(Nc1ccc(Cl)cc1)NC1CCCCC1
AC50 (Cytochrome P450 2C9): 12.6 µM (inconclusive)

c1ccc(N2CCCC3(CCNCC3)C2)nc1
AC50 (Cytochrome P450 2C19): 20 µM (inconclusive) | AC50 (Cytochrome P450 1A2): 25.1 µM (inconclusive) | AC50 (Cytochrome P450 3A4): 15.8 µM (inconclusive) | AC50 (Cytochrome P450 2C9): 39.8 µM (inconclusive)

COC(=O)c1cnc2c(c(C)nn2C)c1OC
EC50 [2]: > 260 µM (inactive)

O=C(c1ccncc1)N1CCC2(CCCN(c3ccccn3)C2)CC1
AC50 (Cytochrome P450 2D6): 25.1 µM (inconclusive)
